Patent US12310929B2, “Use of rasagiline for the treatment of restless legs syndrome” (TEVA PHARMACEUTICAL INDUSTRIES, LTD., priority 2006, dated 2025)
Like-named read-outs stand apart in the source and are kept apart here.

Columns and labels:
RLS subjects = details: for IRLS Total (Absolute Change) Mean / IRLS Total (Absolute Change) Median / IRLS Total (Percent Change) Mean / IRLS Total (Percent Change) Median / IRLS Total Mean / IRLS Total Median: rasagiline 1 mg/day oral
Description: This was the first clinical study in which rasagiline was administered to RLS subjects. The dosage regimen of 1 mg/day rasagiline was chosen based on the optimal dosage regimen for the symptomatic treatment of PD. […] Therefore, in the event that a subject could not tolerate the 1 mg daily dose of rasagiline, a daily dose of 0.5 mg rasagiline was permitted. Rasagiline was administered orally as a tablet. Both the 1 mg and 0.5 mg rasagiline tablets were beveled round tablets, flat, white to off-white, scored on one side, plain on the other side. Teva Pharmaceutical Industries Ltd. was responsible for the manufacture and primary packaging of study medications according to current Good Manufacturing Practice (cGMP) principles and guidelines applicable to investigational medicinal products.
IRLS (International Restless Legs Scale)
The IRLS scale is comprised of 10 items designed to assess the severity of sensory and motor symptoms, sleep disturbance, daytime somnolence, and impact on activities of daily living and mood associated with RLS. All items receive a grade in the range 0 to 4 (0=absence of a problem, 4=very severe problem) giving a maximum score of 40.
The investigator scored subjects on the IRLS at all scheduled study visits. The primary efficacy endpoint was based on the change from baseline to weeks 2, 4, and 8 in IRLS scores.
Each of 10 items were graded on a scale between 0 and 4 where 0 denotes the absence of a problem, and 4 a very severe problem.

[1] = system: old rats with periodic hindlimb movements; details: daily treatment; 3 consecutive nights beginning 7 days after onset; vs vehicle-treated rats
Description: In a group of old rats 16-20 months, sleep-wake behavior is recorded and hindlimb movements are detected by means of a magneto-inductive device during two 12-h light periods (Baier P. C. et al., Assessment of spontaneously occurring periodic limb movements in sleep in the rat, J. Neurol. Sci. 2002; 198(1-2): 71-77). Periodic hindlimb movements (PHLM) during nonrapid eye movement sleep (NREM) are identified according to modified human criteria in some of the rats, which are then selected for the rasagiline study. Half the rats are treated daily with rasagiline while the other half receive vehicle. Incidence of PHLM is determined for 3 consecutive nights, beginning 7 days after onset of treatment.

[2] = system: patients with moderate to severe primary Restless Legs Syndrome; experiment: Placebo-controlled, double-blind, randomized clinical test in primary RLS (Example 8)
[3] = system: early Parkinson's disease subjects; details: rasagiline-treated subjects; cited from earlier work

C#CCN[C@@H]1CCc2ccccc21 [rasagiline, R-(+)-N-propargyl-1-aminoindan]
IRLS Total (Absolute Change) Mean (RLS subjects; VISIT WEEK 1, N=2): −3.00 | IRLS Total (Absolute Change) Median (RLS subjects; VISIT WEEK 1, N=2): −3.00 | IRLS Total (Percent Change) Mean (RLS subjects; VISIT WEEK 1, N=2): −11.54% | IRLS Total (Percent Change) Median (RLS subjects; VISIT WEEK 1, N=2): −11.54% | IRLS Total Mean (RLS subjects; VISIT WEEK 1, N=2): 29.00 | IRLS Total Median (RLS subjects; VISIT WEEK 1, N=2): 29.00 | IRLS Total (Absolute Change) Mean (RLS subjects; VISIT WEEK 3, N=1): −14.00 | IRLS Total (Absolute Change) Median (RLS subjects; VISIT WEEK 3, N=1): −14.00 | IRLS Total (Percent Change) Mean (RLS subjects; VISIT WEEK 3, N=1): −53.85% | IRLS Total (Percent Change) Median (RLS subjects; VISIT WEEK 3, N=1): −53.85% | IRLS Total Mean (RLS subjects; VISIT WEEK 3, N=1): 12.00 | IRLS Total Median (RLS subjects; VISIT WEEK 3, N=1): 12.00 | IRLS Total (Absolute Change) Mean (RLS subjects; VISIT WEEK 4, N=2): −6.50 | IRLS Total (Absolute Change) Median (RLS subjects; VISIT WEEK 4, N=2): −6.50 | IRLS Total (Percent Change) Mean (RLS subjects; VISIT WEEK 4, N=2): −25.00% | IRLS Total (Percent Change) Median (RLS subjects; VISIT WEEK 4, N=2): −25.10% | IRLS Total Mean (RLS subjects; VISIT WEEK 4, N=2): 25.50 | IRLS Total Median (RLS subjects; VISIT WEEK 4, N=2): 25.50 | mean IRLS Rating Scale score (RLS subjects; after 2 weeks, 2 subjects, baseline mean 32): 29 | IRLS Rating Scale score (RLS subjects; at 4 weeks, one subject): 13 | decrease from baseline in IRLS Rating Scale score (RLS subjects; at 4 weeks, one subject): 50% | IRLS score (RLS subjects; by 8 weeks, remaining subject): 12 | decrease from baseline in IRLS score (RLS subjects; by 8 weeks, remaining subject): 54% | effect on the symptoms of RLS (RLS subjects; in at least a subset of RLS patients): clinically significant effect | IRLS Rating Scale score (RLS subjects; week 4, subject who discontinued, unchanged from baseline): 38 | incidence of periodic hindlimb movements (PHLM) [1]: significantly fewer | IRLSSG values, change from starting value ([2]; 0.5 mg and 1 mg groups, in comparison with the placebo group): significant improvement | subjective symptoms (tingling, cramps and pain in the legs, restlessness, difficulties falling or remaining asleep) ([2]; end of treatment, both patient groups): either disappear or diminish to a tolerable minimum | hallucinations, somnolence, edema, nausea, vomiting or diarrhea ([2]; patient reports): does not or only to a very minimal extent causes | clinical improvement ([2]; patients in a moderate to severe stage of RLS): distinct clinical improvement | tolerability and safety ([2]; patients with moderate to severe RLS): well tolerated and safe | most commonly reported adverse events [3]: pain, headache and dizziness | side effects typical of dopaminergic medications (hallucinations, somnolence, edema, nausea, vomiting, diarrhea) [3]: infrequently reported
